Laboratory results from patent publication US5354913A, “Optically active phenol derivatives and preparation thereof” (Takeda Chemical Industries, Ltd., priority 1992, dated 1994).

Columns and labels:
guinea-pig platelets = experiment: U-46619 (thromboxane A2 mimic)-induced aggregation in guinea-pig platelets (Experiment 1); format: cell-based; conditions: guinea-pig PRP, U-46619 3×10^-7 M
Method: Thromboxane A2 antagonistic activity Effect on thromboxane A2 minic (U-46619) - induced aggregation in guinea-pig platelets.
(§1) Method: Blood was collected in 3.15% sodium citrate (0.1 ml for 0.9 ml of blood) by aortic puncture from anesthetized guinea-pigs. Citrated blood samples were centrifuged at 950 rpm for 10 minutes and 2,000 rpm for 10 minutes at room temperature to obtain platelet-rich plasma (PRP) and platelet-poor plasma (PPP), respectively. The platelet count of PRP was adjusted to 5,000,000/μl with PPP. Platelet aggregation was measured with a photometer (Hematracer 6, Niko Bioscience, Japan). PRP (250 μl) was preincubated at 37° C. for 2 minutes and then incubated for 2 minutes with drug solution (25 μl), followed by stimulation with U-46619 (25 μl). Effect of drug was shown as the percent inhibition of maximal aggregation of drug-treated group versus that of control group. The concentration of U-46619 was chosen to obtain submaximal aggregation in each PRP (3×10^-7 M).

human platelets = experiment: U-46619 (thromboxane A2 mimic)-induced aggregation in human platelets (Experiment 2); format: cell-based; conditions: Platelet, U-46619 10^-5 ~3×10^-5 M; for inhibition at 0.3 µM: 3 × 10^-7 M; for inhibition at 0.1 µM: 10^-7 M
Method: Thromboxane A2 antagonistic activity Effect on thromboxane A2 minic (U-46619) - induced aggregation in human platelets.
as §1, with “300,000/μl” for “5,000,000/μl”, “(10^-5 ~3×10^-5” for “(3×10^-7”

[1] = tested on: guinea pig tracheal strip; experiment: Inhibitory effect on U-46619 (TXA2 mimic)-induced contraction in guinea pig tracheal strip (Experiment 3); conditions: Cavia porcellus; U-46619 10^-8 M; compound added 1 minute before; read-out: IC50 (Concentration for 50% inhibition)
Method: Inhibitory effect on U-46619 (TXA2 minic) - induced contraction in guinea pig tracheal strip
Method: Guinea pig tracheae were removed, and tracheal strips were prepared. Each strip was placed in a 10 ml organ bath containing Tyrode's solution aerated with 5% CO2 -95% O2 gas at 37° C. The tracheal strip was placed under resting tension of 1 g. The contractile response of the strip to thromboxane A2 minic U-46619 (10^-8 M) were examined. The strip was treated with the test compound for 1 minute before the addition of U-46619.
Result: The results are shown in Table 10 as the concentration for 50% inhibition (IC50).

[2] = tested on: U-46619 (TXA2 minic) - induced bronchoconstriction in guinea pig; experiment: Inhibitory effect on U-46619 (TXA2 mimic)-induced bronchoconstriction in guinea pig (Experiment 4); format: in vivo; conditions: orally 1 hour before U-46619 (10 μg/kg), p < 0.01 vs control group
Method: Inhibitory effect on U-46619 (TXA2 minic) - induced bronchoconstriction in guinea pig.
Method: Six male Hartley guinea pig were used per one group. The guinea pig anesthetized with urethane (1.5 g/kg, i.p.) was fixed in a dorsal position, subjected to tracheotomy and connected to a respirator through a cannula. A side branch of the tracheal cannula was connected to a respirator (Harvard apparatus rodent respirator Type 680) at the rate of 70 strokes/min. and a constant volume of 3 to 5 ml.
Inflation pressure was kept constant at 10 cm H2 O.
After treatment with gallamine triethiodide (1 mg/kg, i.v.), U-46619 (10 μg/kg) dissolved in a physiolosical saline solution was given through a carotid cannula and the airway resistance was measured by the overflow technique of Konzett-Rossler method (Konzett, H. and Rossler, R., Naunyn-Schmiedegerg's Arch, Exp. Path. Pharmak., 195, 71-74 (1940)). A test compound was suspended in 5% gum arabic solution and was administered orally 1 hour before the tratment with U-46619.

rats = experiment: Oral toxicity in rats, 2 weeks; format: in vivo, rat; conditions: orally, 1000 mg/kg/day for 2 weeks, 3 rats
Method: Toxicity of the derivatives of the present invention is low. For example, in case that (R)-7-(4-fluorophenyl)-7-(5-hydroxy-6,7-dimethyl-l-oxoindan-4-yl)heptanoicacid was administered orally to 3 rats at a dose of 1000 mg/kg/day for 2 weeks, no rat died. The derivatives of the present invention can be safely administered orally or parenterally as they are or as pharmaceutical compositions of known forms obtained by admixing them with known pharmaceutically acceptable carriers, excipients and the like, for example, tablets, capsules (including soft capsules and micro-capsules), liquids, injection preparations, suppositories and the like, according to pharmaceutically acceptable methods. The dosage is varied according to patients, routes of administration, conditions of diseases to be treated and the like. However, in the case of oral administration to, for example, an adult patient, usually, a dose per one administration is about 0.1 to 20 mg/kg of the body weight, perferably, about 0.1 to 10 mg/kg of the body weight and, conveniently, the administration is carried out one to two times per day.

SMILES	% Inhibition of aggregation (guinea-pig platelets; 3 × 10^-8 M) [%]	% Inhibition of aggregation (guinea-pig platelets; 10^-7 M) [%]	% Inhibition of aggregation (guinea-pig platelets; 10^-8 M) [%]	inhibition at 0.3 µM (guinea-pig platelets; Cavia porcellus, Platelet, 3 × 10^-7 M) [%]	inhibition at 0.3 µM (human platelets) [%]	inhibition at 0.03 µM (human platelets; 3 × 10^-8 M) [%]	inhibition at 0.1 µM (human platelets) [%]	inhibition at 0.01 µM (human platelets; 10^-8 M) [%]	IC50 [1] [nM]	% Inhibition ([2]; 0.31 mg/kg) [%]	% Inhibition ([2]; 1.25 mg/kg) [%]	mortality (rats)
Cc1c(C)c2c(c([C@H](CCCCCC(=O)O)c3ccc(F)cc3)c1O)CCC2=O [Compound 28, (R)-7-(4-fluorophenyl)-7-(5-hydroxy-6,7-dimethyl-1-oxoindan-4-yl)heptanoic acid]	5	36	0	89	100	30	78	13	0.7	84	84	no rat died
Cc1c(C)c(CO)c(C)c([C@H](CCCCCC(=O)O)c2ccc(F)cc2)c1O [Compound 20, (R)-7-(4-fluorophenyl)-7-(2-hydroxy-5-hydroxylmethyl-3,4,6-trimethylphenyl)heptanoic acid]	12	77	3		100		48					
